Results from patent US9943485B2, “Bioactive compounds protection method and compositions containing the same” (priority 2003, dated 2018).

Key:
[1] = Effects of feed formula enriched with encapsulated insulin on lambs' weight gain, disease incidence and death rate; type: in vivo, Assaf specie lambs; conditions: one study
Source text: More than 1,000 Assaf specie lambs over a period of 12 months at the age of 2-3 days from birth, were used. The growing period was divided into two periods: 3-28 days from birth, during which the lambs were exclusively fed by a milk replacer; and 29-75 days from birth, during which the lambs were fed by post-weaning mix/mash. Lambs in the study groups received between 600 MicroUnits-3,000 MicroUnits of insulin/ml. of milk replacer, and between 1,600 MicroUnits-5,000 MicroUnits of insulin/gr. of mix/mash.
A liquid blend, of 4 Kilograms of Maltodextrin, 40 Liters of Saline 0.9% and 100,000 IU (International Units) of insulin was blended (e.g., 25 IU insulin per 1 g of Maltodextrin). The liquid blend was then freeze-dried. The product of the process was maltodextrin encapsulated insulin. 97% of the bioactive properties of the insulin were maintained after the freeze-drying process. A premix of 10 Kg. was prepared from standard milk powder and the maltodextrin encapsulated insulin. The premix was then blended with 740 Kg. of standard milk replacer product, to generate 750 Kg. of insulin enriched commercial milk replacer.

[2] = Effects of dietary insulin in milk replacer on weight gain in bovine neonates; type: in vivo, Friesy and Charole' calves; conditions: calves, 600 MicroUnits insulin/cc of liquid milk replacer
Source text: 100 Friesy and Charole' calves in ages 12-15 days from birth, were used. Each calf received a milk replacer, of up to 6 liters a day, until the 37th day from birth. From the 37th day, milk replacer quantity was reduced by 0.5 liters every 2 days while simultaneously, pellet quantity increased, until the calf's 57 days old, when it is considered fully weaned. Calves in the experimental group receive 600 MicroUnits/cc. of liquid milk replacer. Calves in the control group receive no insulin at all. Daily growth in grams per each 1 Kg. of birth weight was measured and calculated for each calf.

Substance: insulin
- lambs survived at marketing ([1]; insulin fed group started with 70 newly born lambs, 150 days after birth): 68 lambs
- death rate ([1]; insulin fed group, 70 lambs, at marketing (150 days after birth)): 2.8%
- death rate lower compared with the control group ([1]; insulin-fed group 2.8% vs control 11.6% death rate): 74.8%
- average daily weight growth in grams per each Kg. of birth weight ([2]; at the end of the study period): 22.47 g/Kg birth weight
- more weight gained compared with the control group ([2]; between day 17 and day 67 after birth): up to 26%
